Holding throughout (assay): E. coli hemG growth inhibition by herbicide, AtPPO1 variant
Holding throughout (format): cell-based
Holding throughout (details): read-out: percentage growth inhibition

The target of experiment [1] is T1, AtPPO1 P271C (Arabidopsis thaliana, UniProt P55826, P271C).
T1 construct: expressed in transfected cells; host or cells: E. coli BL21(DE3) hemG (hemG replaced by CmR), pET24a plasmid
T1 sequence (P55826 35-537 P271C): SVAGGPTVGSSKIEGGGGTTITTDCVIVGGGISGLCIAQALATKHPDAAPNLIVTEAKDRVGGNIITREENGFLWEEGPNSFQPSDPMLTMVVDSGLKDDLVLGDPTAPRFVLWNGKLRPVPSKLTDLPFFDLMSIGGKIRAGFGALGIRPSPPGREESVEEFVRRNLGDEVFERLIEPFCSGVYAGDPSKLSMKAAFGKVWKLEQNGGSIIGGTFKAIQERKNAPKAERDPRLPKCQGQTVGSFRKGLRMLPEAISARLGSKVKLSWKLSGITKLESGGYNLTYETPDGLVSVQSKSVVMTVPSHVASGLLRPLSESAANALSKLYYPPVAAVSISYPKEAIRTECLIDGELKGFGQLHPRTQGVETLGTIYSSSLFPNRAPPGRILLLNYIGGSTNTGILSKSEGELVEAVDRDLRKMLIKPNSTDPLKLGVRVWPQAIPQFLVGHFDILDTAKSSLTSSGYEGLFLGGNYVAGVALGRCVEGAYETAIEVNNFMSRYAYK
Put shortly:
(§1)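 Read-out is OD600 at 24 h post inoculation, converted to percent growth inhibition relative to DMSO. The hemG-deleted BL21(DE3) host relied on the plasmid-borne AtPPO1 variant, induced with 0.1 mM IPTG, with 6.25 ppm herbicide 0 or E or 0.78 ppm herbicide B present at 37° C.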

The target in experiment [2] is T2, AtPPO1 P418M (Arabidopsis thaliana, UniProt P55826, P418M).
T2 construct: expressed in transfected cells; host or cells: E. coli BL21(DE3) hemG (pET24a, T7 promoter)
T2 sequence (P55826 35-537 P418M): T1 sequence (P55826 35-537 P271C) with C237P, P384M
Put shortly:
as §1

Experiment [3] has as its target T3, AtPPO1 S305L (Arabidopsis thaliana, UniProt P55826, S305L).
T3 construct: expressed in transfected cells; host or cells: E. coli BL21(DE3) hemG (pET24a, T7 promoter)
T3 sequence (P55826 35-537 S305L): T1 sequence (P55826 35-537 P271C) with C237P, S271L
Put shortly: as §1

The target in experiment [4] is T4, AtPPO1 Y361D (Arabidopsis thaliana, UniProt P55826, Y361D).
T4 construct: expressed in transfected cells; host or cells: E. coli BL21(DE3) hemG (pET24a, T7 promoter)
T4 sequence (P55826 35-537 Y361D): T1 sequence (P55826 35-537 P271C) with C237P, Y327D
A digest of the protocol:
as §1

Numbering of substitutions follows the chain as printed.

The term inhibition denotes the relative decrease from the control value, in per cent.

As for `C#CCN1C(=O)C(F)(F)Oc2cc(F)c(-n3c(=O)n(C)c(=S)n(C)c3=O)cc21` [Herbicide B, trifludimoxazin], the inhibition at 0.78 ppm in experiment [1] amounted to 24%; in experiment [2], 12%; in experiment [3], 26%; in experiment [4] it was 20%.

Turning to `CCOC(=O)[C@]1(C)CC(c2cc(-n3c(=O)n(C)c(=S)n(C)c3=O)c(F)cc2Cl)=NO1` [Herbicide D, ethyl (5S)-3-[2-chloro-5-(3,5-dimethyl-2,6-dioxo-4-thioxo-1,3,5-triazinan-1-yl)-4-fluoro-phenyl]-5-methyl-4H-isoxazole-5-carboxylate], the inhibition at 6.25 ppm stood at 24% in experiment [1], 25% in experiment [2], 14% in experiment [3] and 33% in experiment [4].

`CC(C)N(C)S(=O)(=O)NC(=O)c1cc(-n2c(=O)cc(C(F)(F)F)n(C)c2=O)c(F)cc1Cl` [Herbicide E, saflufenacil]: the inhibition at 6.25 ppm in experiment [1] was 66%; in experiment [2], 64%; in experiment [3], 39%; in experiment [4], 14%.
